Assay results reported in patent US7420056B2, “Substituted bicyclic imidazo-3-ylamine compounds” (Gruenenthal GmbH, priority 2004, dated 2008).
pIC50: −log10 of the molar value. Like-named read-outs stand apart in the source and are kept apart here.

Assays:
[1] = target: mGluR5 receptor (Sus scrofa, UniProt I3LUI7); assay: Affinity for the mGluR5 receptor: inhibition of 3[H]-MPEP binding in pig brain homogenate; settings: 3[H]-MPEP binding
In short: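 Pig brain membranes (450 μg protein; hemispheres without medulla, cerebellum and pons) in 30 mM Hepes pH 8.0 were incubated 60 min at room temperature with 5 nM [3H]-MPEP and compound at 10 μM. Bound radioactivity was filtered and counted. Nonspecific binding was defined with 10 μM MPEP.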

[2] = test system: Rat; assay: Formaldehyde test (rat), phase 2; format: in vivo
[3] = test system: Mouse; assay: Formaldehyde test in mice; format: in vivo
[4] = test system: neuropathic pain in rats (cold allodynia); assay: Neuropathic pain in rats, Bennett model (chronic constriction injury), cold allodynia; format: in vivo; settings: rat, p.o., in words
From the text: 2. Neuropathic Pain in Rats Efficacy against neuropathic pain was investigated in the Bennett model (chronic constriction injury; Bennett and Xie, 1988, Pain 33: 87-107). The corresponding parts of the literature are hereby deemed to be part of the present disclosure. Sprague-Dawley rats weighing 140-160 g are provided under Nembutal anaesthesia with four loose ligatures of the right ischial nerve. On the paw innervated by the damaged nerve, the animals develop hypersensitivity which, after one week's convalescence, is quantified over a period of approx. four weeks by means of a cold metal plate at 4° C. (cold allodynia). The animals are observed on this plate for a period of 2 min. and the number of withdrawal responses by the damaged paw is measured. […] The significance of an antiallodynic action is determined with reference to the AUC values by means of a paired T-test (*0.05≧p>0.01; **0.01≧p>0.001; ***p≦0.001; Armitage and Berry, 1987, Stat. Methods in Medical Research, London: Blackwell Scientific Publications).

[5] = test system: male Sprague-Dawley rats; assay: Elevated plus maze (EPM) model, anxiolytic effect; format: in vivo; settings: rat, 60 min after p.o. administration, in words
Method: 3. “Elevated Plus Maze” Model
Compounds are tested for a possible anxiolytic effect in the “elevated plus maze” (EPM) model. The tests are carried out on male Sprague-Dawley rats (200-250 g) using 2 “elevated plus mazes” (Med Associates) with electronically controlled infrared photobeams for determining the location of the animals in the maze. Each maze has 2 open and 2 closed arms and a central platform. The edges of the open arms are delimited by narrow strips. The entire maze is mounted on a metal stand.
At the beginning of a 5 minute test, each animal is individually placed on the central platform with its head in the direction of a closed arm.
The following parameters are determined or calculated and evaluated:
the number and percentage of entries into the open and closed arms,
and the percentage of time spent in the open and closed arms and on the central platform.
The data are analysed by means of single factor ANOVA (comparison of treatment groups vs. vehicle group). The significance level is set at p<0.05. All groups have a size of N=10.
The test is also described in Hogg, S. (1996) A review of the validity and variability of the elevated plus-maze as an animal model of anxiety. Pharmacol. Biochem. Behav. 54, 21-30 and Rodgers, R. J., Cole, J. C. (1994) The elevated plus-maze: pharmacology, methodology and ethology, in: Cooper, S. J., Hendrie, C. […]

[6] = ip, read-out: ED50 value, Rat i.p.
[7] = po, read-out: ED50 value, Rat p.o.
[8] = ip, read-out: ED50 value, Mouse i.p.

mGluR5 receptor, sequence (I3LUI7 19-1212): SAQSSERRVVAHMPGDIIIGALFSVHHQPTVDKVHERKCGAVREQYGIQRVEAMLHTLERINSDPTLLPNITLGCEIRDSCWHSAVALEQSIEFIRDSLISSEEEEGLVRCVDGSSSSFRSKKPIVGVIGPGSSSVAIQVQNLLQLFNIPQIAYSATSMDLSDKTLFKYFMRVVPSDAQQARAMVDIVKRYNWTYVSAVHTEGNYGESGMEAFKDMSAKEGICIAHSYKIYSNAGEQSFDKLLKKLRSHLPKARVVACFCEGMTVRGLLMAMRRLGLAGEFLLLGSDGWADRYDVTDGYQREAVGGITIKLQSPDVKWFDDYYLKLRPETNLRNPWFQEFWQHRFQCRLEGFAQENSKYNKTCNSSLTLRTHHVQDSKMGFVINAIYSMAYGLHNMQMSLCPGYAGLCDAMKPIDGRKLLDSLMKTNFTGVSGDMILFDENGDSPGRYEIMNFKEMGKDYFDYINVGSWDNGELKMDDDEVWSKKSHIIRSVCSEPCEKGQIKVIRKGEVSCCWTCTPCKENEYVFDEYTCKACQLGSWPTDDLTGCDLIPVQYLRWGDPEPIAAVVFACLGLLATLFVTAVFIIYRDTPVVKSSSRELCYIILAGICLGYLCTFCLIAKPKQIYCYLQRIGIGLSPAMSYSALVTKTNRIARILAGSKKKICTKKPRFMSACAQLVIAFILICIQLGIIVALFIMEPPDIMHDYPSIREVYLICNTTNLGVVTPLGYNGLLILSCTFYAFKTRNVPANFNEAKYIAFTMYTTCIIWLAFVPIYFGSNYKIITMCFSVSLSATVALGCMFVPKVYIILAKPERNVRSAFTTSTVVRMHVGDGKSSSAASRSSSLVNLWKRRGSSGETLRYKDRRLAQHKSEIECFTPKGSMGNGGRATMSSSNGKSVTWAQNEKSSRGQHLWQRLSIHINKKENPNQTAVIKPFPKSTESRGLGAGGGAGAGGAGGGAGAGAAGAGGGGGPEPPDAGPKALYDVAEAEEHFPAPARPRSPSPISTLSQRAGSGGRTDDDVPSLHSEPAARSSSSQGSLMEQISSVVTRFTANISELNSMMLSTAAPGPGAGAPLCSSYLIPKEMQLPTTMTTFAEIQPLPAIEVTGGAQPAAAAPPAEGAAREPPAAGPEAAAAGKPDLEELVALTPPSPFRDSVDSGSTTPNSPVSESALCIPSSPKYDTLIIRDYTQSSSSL

pIC50 [1] | SMILES | ED50 [2, 6] [mg/kg] | ED50 [2, 7] [mg/kg] | ED50 [3, 8] [mg/kg] | ED50 ([3]; po, read-out: ED50 value, Mouse p.o.) [mg/kg] | antiallodynic action [4] | anxiolytic effect [5]
8.27 | CC(C)(C)Nc1c(-c2ccc(C#Cc3ccccn3)s2)nc2cnccn12.Cl [Example 91, N-tert-butyl-2-(5-(pyridin-2-ylethynyl)thiophen-2-yl)imidazo[1,2-a]pyrazin-3-amine hydrochloride] | 4.7 | 7.3 | 1.2 | 2.3 |  | 
7.12 | CC(C)(C)Nc1c(-c2ccc(C#Cc3ccccn3)cc2)nc2cnccn12 [Example 116, N-tert-butyl-2-(4-(pyridin-2-ylethynyl)phenyl)imidazo[1,2-a]pyrazin-3-amine] |  |  | 15.2 |  |  | 
8.08 | CC(C)(C)Nc1c(-c2ccc(C#Cc3ccncc3)s2)nc2cnccn12.Cl [Example 127, N-tert-butyl-2-(5-(pyridin-4-ylethynyl)thiophen-2-yl)imidazo[1,2-a]pyrazin-3-amine hydrochloride] | 2.2 | 5.9 | 7.7 |  |  | 
 | CC(C)(C)Nc1c(-c2ccc(C#Cc3ccccn3)s2)nc2ccccn12.Cl [Example 192, N-tert-butyl-2-(5-(pyridin-2-ylethynyl)thiophen-2-yl)imidazo[1,2-a]pyridin-3-amine hydrochloride] |  |  |  |  | pronounced, long-lasting antiallodynic action | dose-dependent anxiolytic effect
